Experimental data reported in paper PMC11292009, “Mapping protein binding sites by photoreactive fragment pharmacophores” (Communications Chemistry, 2024).
“And” between values parts separate entries of the source, which are not always exact repeats. Equal entries are not always repeated.

Tests used:
[1] = system: carbonic anhydrase II (CA); experiment: Intact protein MS photoaffinity labeling screen, carbonic anhydrase; assay type: binding; settings: intact protein MS after 10 min irradiation
In short: (§1)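 Labeling % derives from mass additions observed by intact protein MS on each well, measured without transfer from the plate; fragments, one per well, had been pre-incubated 15 min with protein.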

BRD4-BD1 = system: T1, BRD4-BD1; experiment: Intact MS photoaffinity labeling screen, BRD4-BD1 (302 nm, LCMS-TOF); assay type: binding; settings: for experimental hit status BRD4-BD1: 0/1 flag; for MS labeling percentage, BRD4: BRD4-BD1, 302 nm 10 min
T1 construct: screened the PhP library against the first bromodomain of BRD4 (BRD4-BD1); purchased GSK/GenScript
In short: (§2)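 Labeling detected as mass additions in deconvoluted intact-protein LCMS-TOF spectra. Protein at 1 μM in PBS was first mixed with one fragment per well on ice for 15 min, followed by 10 min UV exposure at 302 nm.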

KRas^G12D = system: T2, KRas^G12D; experiment: Intact MS photoaffinity labeling screen, KRas G12D (302 nm, LCMS-TOF); assay type: binding; settings: for MS labeling percentage, KRas: KRas G12D, 302 nm 10 min; for experimental hit status KRAS-G12D: 0/1 flag
T2 construct: purchased GSK/GenScript
In short: as §2

lysozyme (Lyo) = experiment: Intact protein MS photoaffinity labeling screen, lysozyme; assay type: binding; settings: intact protein MS after 10 min irradiation
In short: as §1

myoglobin (Myo) = experiment: Intact protein MS photoaffinity labeling screen, myoglobin; assay type: binding; settings: intact protein MS after 10 min irradiation
In short: as §1

STAT5B-NTD [2] = system: T3, STAT5B-NTD; experiment: Intact MS photoaffinity labeling screen, STAT5B-NTD (365 nm, UHPLC-MS); assay type: binding; settings: for MS labeling percentage, STAT5B: STAT5B-NTD, 365 nm 10 min, no photocatalyst; for experimental hit status STAT5B-NTD: 0/1 flag;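 for MS labeling percentage, STAT5B: 0.17 µL of 100 mM DMSO fragment stock added to the protein sample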
T3 construct: His-SUMO (N, cleaved yes); made in house; host or cells: E. coli BL21 RILP
In short: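 UV irradiation at 365 nm for 10 min at 4 °C. Labeling read by intact-protein UHPLC-MS, positive ion mode, m/z 100–2000.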

STAT5B-NTD [3] = system: T3, STAT5B-NTD; experiment: Intact MS labeling screen, STAT5B-NTD conjugated with photocatalyst Ir-G2-PEG3-COOH (450 nm); assay type: binding; settings: 450 nm 10 min;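 note: 0.14 µL of 100 mM DMSO fragment stock added to the conjugate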
In short: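 Ir-G2-PEG3-COOH photocatalyst (10 eq) activated 30 min with EDC/NHS/BOP, then conjugated to STAT5B-NTD (7 µM) overnight at RT or 1 h at 37 °C in dark. PhP added, 1 h dark, then 450 nm irradiation 10 min at 4 °C; labeling read by intact LC-MS, positive ion mode, m/z 100–2000.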

[4] = system: T4, Kras G12D protein / SOS1 exchange domain; experiment: Kras-SOS exchange assay (MANT-GDP); assay type: biochemical
T4 construct: Cytoskeleton, Inc. (SOS1 exchange domain only) GE02
Protocol: MANT-GDP loading assay: Kras^G12D protein was first buffer exchanged into low magnesium buffer (20 mM HEPES-NaOH (pH 7.5), 50 mM NaCl, 0.5 mM MgCl2) using a NAP5 column (catalog no.: 17-0583-1, Cytiva). The proteins were then incubated with 20-fold molar excess of N-methylanthraniloyl (MANT)-GDP (catalog no.: 69244, Sigma-Aldrich) in loading buffer (50 mM NaCl, 20 mM HEPES-NaOH [pH 7.5], 0.5 mM MgCl2, 10 mM EDTA, and 1 mM Dithiothreitol (DTT)) in a total volume of 200 μL at 20 °C for 90 min. The reaction was stopped by adding MgCl2 to a final concentration of 10 mM, then incubated at 20 °C for 30 min. The unbound MANT-GDP was removed using the NAP-5 column equilibrated with nucleotide exchange buffer (40 mM HEPES-NaOH (pH 7.5), 50 mM NaCl, 10 mM MgCl2, 2 mM DTT).
MANT-GDP exchange assay: First the MANT-GDP bound Kras G12D protein (in a final 1 μM molar concentration) was preincubated with the inhibitor molecules for 60 min. After the preincubation the samples were exposed to UV light for 10 min with a wavelength of 366 nm. The UV-treated MANT-GDP Kras-inhibitor mix was loaded into a black 384 well microplate. The nucleotide exchange reaction was initiated by adding 100 fold molar excess of GppNHp (catalog no.: G0635, Sigma-Aldrich), a non-hydrolyzable GTP analog and the SOS1 exchange domain (catalog no.: GE02, Cytoskeleton, Inc.) protein in 0.5 μM final concentration. The change in fluorescence intensity was measured every 30 s in room temperature for 60 min on an EnSpire plate reader (PerkinElmer, Inc.). The measured fluorescence values were fitted to a single exponential function by using GraphPad Prism 8 software.

[5] = system: CA, Lyo, Myo, BRD4-BD1, KRas G12D, STAT5B-NTD; experiment: Intact MS labeling compared over all protein targets; assay type: binding; settings: for Number of proteins labeled: of the six protein targets; for Labeling of the other protein targets (vs. preferred target): each of the other targets
Protocol: Using a plate-based format with one fragment per well, each fragment was incubated with the target proteins for 15 min to allow for the formation of non-covalent interactions. The plate was then irradiated at 302 or 365 nm for 10 min to enable the bound fragments to crosslink to the protein[26]. Finally, the results were directly analyzed from the plate using intact protein mass spectrometry by observing the mass additions that correspond to successful labeling (Fig. 2c, for labeling % values see Supplementary data). The library was first characterized against three benchmark proteins like carbonic anhydrase (CA), lysozyme (Lyo), and myoglobin (Myo).
The PhP library was screened against BRD4-BD1 and KRas^G12D as follows. Using a Labcyte Echo® 555 Liquid Handler, 150 nL of fragment solution (20 mM) was transferred into a Greiner 384 low-volume plate (white) to prepare the probe plate. The probe plate was placed on ice. 15 μL of protein stock solution (1 μM BRD4-BD1 (GSK/GenScript) or KRas^G12D (GSK/GenScript) in PBS buffer) was dispensed into wells containing fragments. The plate was left on ice for 15 min for incubation, then irradiated at 302 nm for 10 min, and centrifuged (1000 rpm, 1 min) to remove any bubbles. The plate was then analyzed by LCMS-TOF mass spectrometry (Agilent 1200 series liquid chromatography with Agilent Bio-HPLC PLRP-S (1000 Å, 5 µm × 50 mm × 1.0 mm, PL1312-1502) reverse phase HPLC column at 70 °C equipped with an Agilent G6224 time-of-flight (ToF), see Supplementary Note 2 for the full protocols). The deconvoluted spectra were analyzed using R Studio software.
During the analysis, the column temperature was maintained at a constant 60 °C, and a sample volume of 3 µL was injected for each analysis. Data acquisition was conducted in positive ion mode within the m/z 100–2000 (mass-to-charge ratio) range. For the full protocol and spectra of the hits, see Supplementary Note 2.

[6] = sheet PhP, experimental hit status flag given as 0 or 1
[7] = PhP library sheet "PhP", binary flag printed as 0 or 1, key not given
[8] = hit flag 1/0, sheet PhP, photoaffinity labeling screen
[9] = experimental hit status flag (0/1)

Structure (SMILES) | MS labeling percentage, CA [1] | MS labeling percentage, KRas (KRas^G12D) | MS labeling percentage, Lyo (lysozyme (Lyo)) | MS labeling percentage, Myo (myoglobin (Myo)) | MS labeling percentage, STAT5B (STAT5B-NTD [2]) | MS labeling percentage, STAT5B+photocat (STAT5B-NTD [3]) | experimental hit status BRD4-BD1 (BRD4-BD1) | MS labeling percentage, BRD4 (BRD4-BD1) | experimental hit status KRAS-G12D (KRas^G12D) | experimental hit status STAT5B-NTD (STAT5B-NTD [2]) | Labeling of the other protein targets (vs. preferred target) [5] | further results
CC1(CCC(=O)Nc2ccc(-c3ncccc3O)cc2)N=N1 [PhP060, N1=NC1(C)CCC(=O)Nc2ccc(cc2)-c3ncccc3O] | 17.3% | 13.7% | 16.1% | 24.9% | 0% | 8.8% | – | – | – | – | – | BRD4-BD1 (experimental hit status) (BRD4-BD1; [6]): 0; KRAS-G12D (experimental hit status) (KRas^G12D; [6]): 1; STAT5B-NTD (experimental hit status) (STAT5B-NTD [2]; [6]): 0; Effect on SOS1-mediated nucleotide exchange of KRas ([4]; prior to irradiation): no effect; Effect on SOS1-mediated nucleotide exchange of KRas ([4]; upon irradiation (366 nm, 10 min)): no effect; Number of proteins labeled [5]: four
CC1(CCC(=O)NCCNS(=O)(=O)c2cccc([N+](=O)[O-])c2)N=N1 [PhP035, N1=NC1(C)CCC(=O)NCCNS(=O)(=O)c2cccc(c2)N(=O)=O] | 1.8% | 2% | 0.3% | 1.3% | 0% | 9.7% | 0 | 3.7% | 0 | 0 | – | Labeling efficiency over all protein targets (mean ± spread) [5]: 1.5 ± 1.2%
CCCc1nn(C)c(C(N)=O)c1NC(=O)CCC1(C)N=N1 [PhP082, CCCc1nn(C)c(C(=O)N)c1NC(=O)CCC2(C)N=N2] | 0% | 0% | 0% | 52.9% | 0% | 2.4% | – | 0.2% | – | – | > 0.5% and < 0.5% | BRD4-BD1 (experimental hit status) (BRD4-BD1; [7]): 0; KRAS-G12D (experimental hit status) (KRas^G12D; [7]): 0; STAT5B-NTD (experimental hit status) (STAT5B-NTD [2]; [7]): 0
CCN(CCCNC(=O)CCC1(C)N=N1)c1ccccc1 [PhP048, c1ccccc1N(CC)CCCNC(=O)CCC2(C)N=N2] | 0% | 29.4% | 2.1% | 0% | 2.9% | 3.2% | – | 0.4% | – | – | > 3% and < 3% | BRD4-BD1 (experimental hit status) (BRD4-BD1; [8]): 0; KRAS-G12D (experimental hit status) (KRas^G12D; [8]): 0; STAT5B-NTD (experimental hit status) (STAT5B-NTD [2]; [8]): 0
Cc1cccc(-c2cnc(CNC(=O)CCC3(C)N=N3)[nH]2)c1 [PhP037, Cc1cccc(c1)-c2cnc([nH]2)CNC(=O)CCC3(C)N=N3] | 0.9% | 11.2% | 0% | 1.4% | 2% | 1.5% | 0 | 4.8% | 0 | 0 | – | Labeling efficiency over all protein targets (mean ± spread) [5]: 3.4 ± 3.8%
Cn1ccnc1CCNC(=O)CCC1(C)N=N1 [PhP003, Cn1ccnc1CCNC(=O)CCC2(C)N=N2] | 4.7% | 0.8% | 0% | 0.2% | 0% | 0.8% | – | 1.1% | – | – | > 1.1% and < 1.1% | BRD4-BD1 (BRD4-BD1; [9]): 0; KRAS-G12D (KRas^G12D; [9]): 0; STAT5B-NTD (STAT5B-NTD [2]; [9]): 0
COc1ccc(S(=O)(=O)N2CCC(NC(=O)CCC3(C)N=N3)CC2)cc1 [PhP018, COc1ccc(cc1)S(=O)(=O)N2CCC(CC2)NC(=O)CCC3(C)N=N3] | 17.7% | 42% | 3.7% | 19.9% | 0% | 0.7% | 0 | 65.5% | 0 | 0 | – | Number of proteins labeled [5]: four
